EP1734031A1, “NOVEL 2-(ALPHA-N-PENTANONYL)BENZOETES, THEIR PREPARATION AND USE” (priority 2004, dated 2005)
Where “and” joins values, the source holds several entries; their conditions need not be identical. Equal entries are not always repeated.

What was measured:
[1] = tested on: model rats of middle cerebral artery thrombosis (MCAT); test: Effects on neural symptoms of MCAT rats (behavioral score); type: in vivo, SD rats; details: for Scores 6 hours: 6 hours after operation; for Scores 6 hours / Scores 24 hours: full mark 4; for Scores 24 hours: 24 hours after operation; for % inhibition at hour 24 / alleviation on neural symptoms at 24 hours after the operation (in words): vs. model group; for alleviation on neural symptoms at 24 hours after the operation (in words): 50 mg/kg, P<0.01 or P<0.05
[2] = tested on: model rats of middle cerebral artery thrombosis (MCAT); test: Effects on cerebral infarct area of MCAT rats (TTC staining); type: in vivo, SD rats; details: for cerebral infarct compared with the model group (in words): 50 mg/kg, P<0.05
in vivo = details: mouse, po; for LD50 at 7 days: both, ICR
[3] = Stability of aqueous solution (decomposed products by HPLC); type: physicochemical; details: aqueous solution 0.2 mg/ml, exposed to water for 24 hours
[4] = tested on: thrombosis of artery-vein bypass in rats; test: Effects on thrombosis of artery-vein bypass in rats; type: in vivo, SD rats; details: for Dry-weight of thrombus / Wet-weight of thrombus: once per day for 3 days; for Inhibition (dry-weight of thrombus) / Inhibition (wet-weight of thrombus): vs. thrombus model group
[5] = Thermal stability (purity by HPLC); details: 10 days at 60°C
Method: Tests were conducted for 10 days at 60°C in accordance with the testing method as described in Pharmacopoeia of P.R. China, 2000 ed., appendix XIX C of part two, "Guideline for testing the stability of medicament: method for testing thermal stability". The purity was determined in accordance with the test described in Pharmacopoeia of P.R. China, 2000 ed., appendix VD of part two, by using HPLC method, C18 column, mobile phase of acetonitrile:0.02M sodium dihydrogen phosphate = 40:60, detecting wavelength of 230 nm, flow rate of 1 ml/min.

[6] = Stability to light (purity by HPLC); details: light test, 10 days
Method: Tests were conducted for 10 days in accordance with the testing method as described in Pharmacopoeia of P.R. China, 2000 ed., appendix XIX C of part two, "Guideline for testing the stability of medicament: method for testing stability to light". The purity was determined in accordance with the test described in Pharmacopoeia of P.R. China, 2000 ed., appendix VD of part two, by using HPLC method, C18 column, mobile phase of acetonitrile:0.02M sodium dihydrogen phosphate = 40:60, detecting wavelength of 230 nm, flow rate of 1 ml/min.

[7] = 50 mg/kg by gavage, 24 hours after operation
[8] = 50 mg/kg by gavage, vs. model group
[9] = 100 mg/kg by gavage, 24 hours after operation
[10] = 100 mg/kg by gavage, vs. model group
[11] = 200 mg/kg by gavage, 24 hours after operation
[12] = 200 mg/kg by gavage, vs. model group

Row | Compound | Scores 6 hours ([1]; 50 mg/kg by gavage) | Scores 24 hours ([1]; 50 mg/kg by gavage) | % inhibition at hour 24 ([1]; 50 mg/kg by gavage) | Scores 6 hours ([1]; 100 mg/kg by gavage) | Scores 24 hours ([1]; 100 mg/kg by gavage) | % inhibition at hour 24 ([1]; 100 mg/kg by gavage) | Scores 6 hours ([1]; 200 mg/kg by gavage) | Scores 24 hours ([1]; 200 mg/kg by gavage) | % inhibition at hour 24 ([1]; 200 mg/kg by gavage) | Cerebral infarct tissue weight/total brain weight [2, 7] | Inhibition (cerebral infarct) [2, 8] | Cerebral infarct tissue weight/total brain weight [2, 9] | Inhibition (cerebral infarct) [2, 10] | Cerebral infarct tissue weight/total brain weight [2, 11] | Inhibition (cerebral infarct) [2, 12] | alleviation on neural symptoms at 24 hours after the operation (in words) [1] | LD50 at 168 h (in vivo) | Dry-weight of thrombus ([4]; 50 mg/kg by gavage) | Wet-weight of thrombus ([4]; 50 mg/kg by gavage) | Inhibition (dry-weight of thrombus) ([4]; 50 mg/kg) | also measured
1 | CCCCC(O)c1ccccc1C(=O)O (stereo not drawn) [Calcium 2-(α-hydroxypentyl)benzoate] | 3.45±0.52 | 3.36±0.50 | 7.69% | 3.55±0.52 | 3.09±0.70 | 17.16% | 3.45±0.52 | 2.91±0.54 | 21.98% | 6.39±2.33% | 13.77% | 5.82±1.90 % | 26.70% | 5.41±1.77 % | 28.91% | – | – | – | – | – | –
2 | CCCCC1OC(=O)c2ccccc21 (racemic) [DL-3-n-butylphthalide] | 3.36±0.81 | 3.09±0.54 | 15.11% | 3.36±0.50 | 3.09±0.70 | 17.16% | 3.36±0.67 | 3.00±0.89 | 19.57% | 5.66±2.81% | 23.62% | 5.81±1.49 % | 26.83% | 5.52±1.78 % | 27.46% | significantly alleviation | 2190 mg/kg | – | – | – | –
3 | CCCCC(=O)c1ccccc1C(=O)[O-].[K+] [Potassium 2-(α-n-pentanonyl)benzoate, potassium 2-(α-n-pentanonyl)benzoate] | 3.27±0.79 | 2.91±0.70 | 20.05% | 3.36±0.67 | 2.82±0.75 | 24.40% | 3.20±0.63 | 2.10 ± 0.32 s | 43.70% | 5.63±1.52 % | 24.02% | 5.09±2.04 % | 35.89% | 4.38±1.54 % | 42.44% | significantly alleviation | – | 38.3 ± 15.4 mg | 208.8 ± 45.3 mg | 25.34% | decomposed product [3]: no decomposed product; cerebral infarct compared with the model group (in words) [2]: significantly reduced; Inhibition (wet-weight of thrombus) ([4]; 50 mg/kg): 19.44%; Dry-weight of thrombus ([4]; 100 mg/kg by gavage): 35.6 ± 14.0 mg; Wet-weight of thrombus ([4]; 100 mg/kg by gavage): 192.6 ± 41.2 mg; Inhibition (dry-weight of thrombus) ([4]; 100 mg/kg): 30.60%; Inhibition (wet-weight of thrombus) ([4]; 100 mg/kg): 25.69%; Dry-weight of thrombus ([4]; 200 mg/kg by gavage): 28.3 ± 16.3 mg; Wet-weight of thrombus ([4]; 200 mg/kg by gavage): 157.0 ± 51.4 mg; Inhibition (dry-weight of thrombus) ([4]; 200 mg/kg): 44.8%; Inhibition (wet-weight of thrombus) ([4]; 200 mg/kg): 39.43%; Inhibition (dry-weight of thrombus) ([4]; 200 mg/kg, listed as potassium 2-(α-n-pentanonyl)benzoate): 44.83%; LD50 at 7 days (in vivo): 2720 mg/kg; decomposed product (thermal stability) [5]: no decomposed product; decomposed product (stability to light) [6]: no decomposed product
4 | CCCCC(O)c1ccccc1C(=O)O (stereo not drawn) [N,N'-dibenzylethylenediamine 2-(α-hydroxypentyl)benzoate] [listing 1 of 2 here] | – | – | – | – | – | – | – | – | – | – | – | – | – | – | – | – | 2810 mg/kg | – | – | – | –
5 | CCCCC(O)c1ccccc1C(=O)O (stereo not drawn) [N,N'-dibenzylethylenediamine 2-(α-hydroxypentyl)benzoate] [listing 2 of 2 here] | – | 3.09±0.54 | 15.11% | – | 2.91±0.70 | – | 3.36±0.67 | 2.82±0.87 | 24.40% | 5.85±2.32% | 21.05% | 5.50±1.82 % | 30.73% | 5.09±2.14 % | 33.11% | significantly alleviation | – | – | – | – | –
6 | CCCCC(=O)c1ccccc1C(=O)[O-].[Na+] [Sodium 2-(α-n-pentanonyl)benzoate, sodium 2-(α-n-pentanonyl)benzoate] | 3.40±0.70 | 3.00±0.67 | 17.58% | 3.10±0.74 | 2.80±0.79 | 24.93% | 3.27±0.65 | 2.82±0.40 | 24.40% | 5.26±2.26 % | 29.01% | 4.99±1.83 % | 37.16% | 5.19±2.40 % | 31.80% | significantly alleviation | – | 26.2 ± 9.7 mg | 138.8 ± 41.1 mg | 31.05% | decomposed product [3]: no decomposed product; cerebral infarct compared with the model group (in words) [2]: significantly reduced; Inhibition (wet-weight of thrombus) ([4]; 50 mg/kg): 34.31%; Dry-weight of thrombus ([4]; 100 mg/kg by gavage): 19.7 ± 7.8 mg; Wet-weight of thrombus ([4]; 100 mg/kg by gavage): 115.4 ± 42.3 mg; Inhibition (dry-weight of thrombus) ([4]; 100 mg/kg): 48.16%; Inhibition (wet-weight of thrombus) ([4]; 100 mg/kg): 45.39%; Dry-weight of thrombus ([4]; 200 mg/kg by gavage): 22.4 ± 10.1 mg; Wet-weight of thrombus ([4]; 200 mg/kg by gavage): 131.1 ± 48.0 mg; Inhibition (dry-weight of thrombus) ([4]; 200 mg/kg): 41.05%; Inhibition (wet-weight of thrombus) ([4]; 200 mg/kg): 37.96%; LD50 at 7 days (in vivo): 2650 mg/kg; decomposed product (thermal stability) [5]: no decomposed product; decomposed product (stability to light) [6]: no decomposed product
7 | CCC/C=C1/OC(=O)c2ccccc21 [3-n-butenylphthalide] | 3.50±0.53 | 3.40±0.52 | 6.59% | 3.36±0.81 | 2.91±0.70 | 21.98% | 3.36±0.67 | 3.00±0.63 | 19.57% | – | – | – | – | – | – | – | 2570 mg/kg | 28.6 ± 9.6 mg | 169.9 ± 28.8 mg | 24.74% | Cerebral infarct tissue weight/total brain weight ([2]; rat, in vivo): 5.90±1.50% and 5.49±2.14 %; Inhibition (cerebral infarct) ([2]; rat, in vivo): 20.38% and 28.84% and 27.86%; Inhibition (wet-weight of thrombus) ([4]; 50 mg/kg): 19.59%; Dry-weight of thrombus ([4]; 100 mg/kg by gavage): 22.9 ± 11.9 mg; Wet-weight of thrombus ([4]; 100 mg/kg by gavage): 137.5 ± 47.4 mg; Inhibition (dry-weight of thrombus) ([4]; 100 mg/kg): 39.74%; Inhibition (wet-weight of thrombus) ([4]; 100 mg/kg): 34.93%; Dry-weight of thrombus ([4]; 200 mg/kg by gavage): 24.9 ± 12.3 mg; Wet-weight of thrombus ([4]; 200 mg/kg by gavage): 141.6 ± 41.2 mg; Inhibition (dry-weight of thrombus) ([4]; 200 mg/kg): 34.47%; Inhibition (wet-weight of thrombus) ([4]; 200 mg/kg): 32.99%
